Source: PMC10262918, “Stapled peptide PROTAC induced significantly greater anti-PD-L1 effects than inhibitor in human cervical cancer cells” (Frontiers in Immunology, 2023)

Test system: PD-L1 in C33A cells
Assay: Western blotting of PD-L1 level in C33A cells
Assay type: cell-based, human
Conditions: 4 h treatment, mean of 3 independent experiments, read-out: IC50 of PD-L1 decrease
Method: C33A and HeLa cells were plated in 6-well plates and treated with the stapled peptide at the indicated concentrations for the specified time, followed by lysis in RIPA buffer containing protease inhibitor. Protein samples were prepared using a BCA Protein Assay Kit (Beyotime). A total of 50 µg of protein were added per lane, separated by 10% SDS-PAGE, and subsequently transferred onto polyvinylidene fluoride (PVDF) membrane. The membrane was blocked with 5% skimmed milk for 2 h at room temperature. Primary antibodies including anti-PD-L1 (Abcam, ab213524) and anti-GAPDH (Abcam, ab9485) antibodies were diluted in primary antibody dilution buffer (Biosharp) and incubated with PVDF membrane at 4°C overnight. Next, the membrane was incubated with goat anti-mouse/anti-rabbit secondary antibodies (Proteintech, SA00001-1, SA00001-2) at room temperature for 1 h. After washing with TBST thrice for 5 min each, the proteins were detected using enhanced chemiluminescence (ECL) reagents (Vazyme) and a ChemiDoc XRS imaging system (Bio-Rad Laboratories).

IC50: 7.79 µM
Structure (SMILES): Cc1c(COc2ccc(CN3CCCCC3C(=O)O)cc2Br)cccc1-c1ccccc1 (stereo not shown) [BMS-8]
